Reference: a melting point compilation (Tetko et al.; mined from patent text by program, amines drawn as free bases though some values may be those of a salt)

Q: Which melting point does the source give for `CNC(=O)[C@@H]1CCCC[C@@H]1Nc1nc(Cl)ncc1Cl` (relative stereo) here?
A: Its melting point is 108 °C.

Q: For `COc1cc2c(cc1OC)C(c1sc(O)nc1C)=NCC2`, which melting point is on record?
A: Its melting point is 114 to 120 °C.

Q: With `O=C1NC(=O)C2(CCCCC2)N1c1cccnc1` as the molecule, how does the melting point read?
A: Its melting point is 264 to 266 °C.

Q: Which melting point does the source give for `COc1cc2c(cn1)OCC21C(=O)N(C(c2ccccc2)c2ccccc2)c2ccccc21` (stereo not drawn) here?
A: The melting point was 177 to 178 °C.

Q: Which melting point does the source give for `CCCCCCCCCC(=O)Oc1ccc([N+](=O)[O-])cc1OC(=O)CCCCCCCCC` here?
A: Its melting point is 45 to 47 °C.

Q: Which melting point does the source give for `CC(C)(C)OC(=O)[C@@H]1CC[C@H](c2ccccc2)N1C(=O)CNC(=O)Nc1cccc(CC(=O)O)c1` here?
A: The melting point was 112 °C.

Q: Which melting point does the source give for `CCCCOC(=O)C=C(C)C=CC=C(C)C=Cc1c(C)cc(OC)c(C)c1C` here?
A: Its melting point is 80 to 81 °C.

Q: With `O=C(NCCO)c1cccc(-c2cccc3cc(Cc4cccc(F)c4)oc23)c1` as the molecule, how does the melting point read?
A: Its melting point is 159 to 160 °C.

Q: With `C=CC1CC1(C(=O)OC)C(=O)OCc1ccco1` (stereo not drawn) as the molecule, how does the melting point read?
A: The melting point was 67.5 to 68.5 °C.

Q: With `O=C1CCc2c(F)cc(Cl)cc21` as the molecule, how does the melting point read?
A: The melting point was 105 to 107 °C.

Q: For `CCOC(=O)C1=C(C)NC(C)=C2C(=O)Oc3cccnc3C12` (stereo not drawn), which melting point is on record?
A: The melting point was 100 to 150 °C.

Q: With `Cn1c(=O)nc(N)c2ccccc21` as the molecule, how does the melting point read?
A: The melting point was 252 to 262 °C.

Q: With `COC(=O)c1c(C(C)C)nc(C(C)C)c(CN2CCC(N3CCCCC3)CC2)c1-c1ccc(F)cc1` as the molecule, how does the melting point read?
A: Its melting point is 59 to 61 °C.

Q: With `COc1cccc(CN2CCCc3cc(O)c(OC)cc3C2)c1` as the molecule, how does the melting point read?
A: Its melting point is 114 to 115 °C.

Q: With `O=C(O)CCC(=O)c1ccc(NC(=O)C2CC2)cc1` as the molecule, how does the melting point read?
A: The melting point was 229 to 230 °C.

Q: Which melting point does the source give for `O=C(NCCn1ccccc1=O)c1cccnc1` here?
A: The melting point was 158 to 159 °C.

Q: For `Cc1cccc(OC(F)F)c1NC(=O)CCl`, which melting point is on record?
A: Its melting point is 85 to 86 °C.

Q: With `Nc1ccccc1S(=O)(=O)N1CC=CC1` as the molecule, how does the melting point read?
A: The melting point was 104 to 105 °C.

Q: For `Nc1ncccc1OCc1c(F)cccc1Cl`, which melting point is on record?
A: Its melting point is 123 to 130 °C.

Q: Which melting point does the source give for `CCOCC1OC(n2cnc3c(NCc4cccc(I)c4)nc(Cl)nc32)C(O)C1O` (stereo not drawn) here?
A: The melting point was 80 to 82 °C.

Q: For `NC(=O)[C@@H]1CCCN1C(=O)/C=C/Sc1ccccc1`, which melting point is on record?
A: The melting point was 50 to 54 °C.

Q: For `O=C(CCC1CCCCCCCCCCC1)C1=C(O)COC1=O`, which melting point is on record?
A: Its melting point is 99 to 102 °C.

Q: With `CC(=O)NC[C@H]1CN(c2cc(F)c(N3CCC(Cc4noc(C)n4)CC3)c(F)c2)C(=O)O1` as the molecule, how does the melting point read?
A: The melting point was 134 to 136 °C.

Q: With `CCOC(=O)C(=O)Nc1ccc(N(C)C)cc1O` as the molecule, how does the melting point read?
A: Its melting point is 259 to 260 °C.

Q: With `Cc1ccccc1NC(=O)Nc1ccc(CN)cc1` as the molecule, how does the melting point read?
A: The melting point was 142 to 143 °C.

Q: Which melting point does the source give for `CC(=O)CC(=O)NC1CCC(C)CC1` (stereo not drawn) here?
A: The melting point was 111 °C.

Q: With `Cc1ccc(C(=O)Nc2ccccc2)cc1NC(=S)Nc1cc(Cl)cc(Cl)c1` as the molecule, how does the melting point read?
A: Its melting point is 182 to 184 °C.

Q: With `CSc1ccc(C=CC#N)cc1` as the molecule, how does the melting point read?
A: The melting point was 79 °C.

Q: With `Cc1cc(SC2=C(O)CC(C3CCCC3)(C3CCCC3)OC2=O)c(C(C)(C)C)cc1N` as the molecule, how does the melting point read?
A: The melting point was 163 to 165 °C.

Q: For `C#CCNC(=S)Cc1ccccn1`, which melting point is on record?
A: The melting point was 62 to 63 °C.

Q: With `Cc1ccccc1C(=O)c1c(C)nn(C)c1O` as the molecule, how does the melting point read?
A: The melting point was 82 to 83 °C.

Q: Which melting point does the source give for `Cc1c(OCC(=O)O)ccc(-c2noc3ccccc23)c1C` here?
A: The melting point was 146 to 152 °C.

Q: With `C=CCOC(=O)NCc1ccc(C(=O)O)cc1` as the molecule, how does the melting point read?
A: Its melting point is 175 to 177 °C.

Q: Which melting point does the source give for `CCCCNC(=O)NS(=O)(=O)c1ccccc1-c1nn(C)c(=O)o1` here?
A: The melting point was 110 to 115 °C.

Q: With `O=C(c1ccccc1)c1cccc2cc[nH]c12` as the molecule, how does the melting point read?
A: The melting point was 100 to 104 °C.

Q: Which melting point does the source give for `COC(=O)NCCCn1c(-c2ccc(Br)cc2)csc1=Nc1ccccc1` here?
A: Its melting point is 132 to 134 °C.

Q: Which melting point does the source give for `CS(=O)(=O)Nn1c(=O)[nH]c2cc(C(F)(F)F)c(-c3cccc(C#N)c3)cc2c1=O` here?
A: Its melting point is 291 to 292 °C.

Q: Which melting point does the source give for `Cc1cnc(Cl)c(OCC(O)CNC(C)C)n1` (stereo not drawn) here?
A: Its melting point is 109 to 110 °C.

Q: Which melting point does the source give for `CCN(CC1CCCC1)c1nc2c(cc1CN(Cc1cc(C(F)(F)F)cc(C(F)(F)F)c1)c1nc(C(F)(F)F)co1)c(C)nn2C` here?
A: The melting point was 139 °C.

Q: Which melting point does the source give for `CS(=O)(=O)OC(c1cccc(C(OS(C)(=O)=O)(C(F)(F)F)C(F)(F)F)c1)(C(F)(F)F)C(F)(F)F` here?
A: The melting point was 125 °C.

Q: With `CNC(=O)C(Cc1ccc(OCCc2nc(-c3ccccc3)oc2C)cc1)C(=O)OC` (stereo not drawn) as the molecule, how does the melting point read?
A: The melting point was 151 to 152 °C.

Q: For `COc1ccc2c(c1OC)CCC1=C2CCC(=O)N1`, which melting point is on record?
A: The melting point was 231 °C.

Q: For `O=c1[nH]c(=O)n(CCCCBr)c2ncccc12`, which melting point is on record?
A: Its melting point is 139 to 141 °C.
